Laboratory results: publication PMC10419174, “WR1065 conjugated to thiol-PEG polymers as novel anticancer prodrugs: broad spectrum efficacy, synergism, and drug resistance reversal” (Frontiers in Oncology, 2023)
Several values for one entry are separate records, joined by “and”; a condition that tells them apart may be missing. Equal entries are not always repeated. Where two headings read alike, the source gives them in different places.

How the values were obtained:
NCI-H1437 NSCLC cells = details: 48-h treatment, amifostine ND = not definable up to 500 µM
Protocol: (§1) The percentage of growth inhibition was calculated as follows: […]

[1] = system: Mammary gland HCC38 cells; experiment: CyQUANT-NF proliferation assay, 48-h drug treatment; assay type: cell-based
[2] = system: Mammary gland MDA-MB-231 cells; experiment: as above; assay type: cell-based
Protocol: Since the BRG prodrugs are composed of WR1065 as one of the major constituents, assays were conducted to determine if factors reported to modulate the activity of amino acid and polyamine plasma membrane transport systems impacted the efficacy of 4SP65 or 1LP65 in selected cancer cell lines. HL60 cells were exposed to 4SP65 with up to 0.5 mM NaCl, MBA-MD-231 cells were tested in the presence and absence of medium supplemented with estradiol plus insulin (in the BulletKit™ for growth supplements for NHMECs), HCC38 cells were exposed to 4SP65 with and without 10 µM insulin added to the growth medium, and multiple cells lines were pretreated for 24 h with 1 mM DFMO prior to starting exposures to 4SP65.
as §1

[3] = system: Strain-2 and Strain-3 NHMECs; assay type: cell-based; details: for cell growth, % of control cell values: 500 µM
Text: Normal human mammary epithelial cell (NHMEC) strains used to assess potential cytotoxicity of 4SP65 and 1LP65 were established from reduction mammoplasty tissue from a healthy donor (M99005 or ‘Strain-1’) ([53]) or purchased from ATCC (Manassas, VA, USA; batch#70043304 or ‘Strain-2’) or Cell Applications (San Diego, CA, USA; lot#1669 or ‘Strain-3’). Human cancer cell lines including HCC38, MDA-MB-231, A549, National Cancer Institute (NCI)-H460, NCI-H1437, NCI-H1975, DU145, LNCaP, PC3, PANC1, SKOV3, and HL60, which were free of Mycoplasma, were purchased from ATCC. HMESO1, PPMMill, and TOV21G cells, obtained from Dr. Brian Cunniff, were verified to be Mycoplasma negative using the LookOut® Mycoplasma PCR Detection Kit (Sigma-Aldrich) and to match previously annotated DNA fingerprints by the Vermont Integrative Genomics Resource DNA Analysis Facility.
To assess the effects of 4SP65 or 1LP65 on the growth of normal epithelium, experiments were performed using NHMEC strains from differing donors ([53]). Strain-1 NHMECs were plated at 5,000 cells/well in 24-well plates and allowed to reach 50% confluence before treatment with 0-150 µM 4SP65 for 48 h. Cell viability was determined using a hemocytometer and trypan blue exclusion assay. Two other NHMEC strains, exposed to 0-150 µM 4SP65 or 0-500 µM 1LP65 for 48 h, were handled in the same fashion except that viability of cells in 96-well plates was determined using CyQUANT dye. Due to the short life span of these NHMECs, standard curves were not generated and fluorescence readings were used as a surrogate marker of cell number ([54]).

[4] = Solubility, storage and stability of 4SP65 and 1LP65; assay type: physicochemical
Protocol: prepared for use and that was not altered by the solvent used, heating up to 37 °C for up to 3 days, and shaking or rocking for up to 3 days at RT or 4°C. For experiment, an aliquot of drug was first mixed in medium, the solvent was removed and saved, and gel pieces were recovered, dried on a vacuum pump, […]
The difference in the starting weight of drug placed into solvent minus the weight of the residue after drying on a vacuum pump was considered to represent the amount of drug that went into solution. The amount of drug that was dissolved at a given time ranged from 40 to 61%, averaging 50.7 ± 8.1% (SD). The weight of the 4SP65 in solution was then used for diluting the drug to concentrations of 200 or 400 µM in supplemented RPMI or DMEM/F12 medium for routine treatment of cells. The dried residue was not used in the in vitro drug efficacy studies. The formation of a gel in the aqueous solvents tested was unexpected since […]
few free thiols in polymer arms of the PEG scaffold for cross-linking reactions to occur. However, unintended topical entanglements between polymer chains of multi-arm PEG-thiol molecules without disulfide formation have been reported (Tang and Bradley 2014 24860800). Aliquots of 4SP65 dissolved in FBS enriched medium has remained stable for >6 months while remnants of the original viscous polymer have maintained stability without any apparent loss of activity when stored for 60 […]
However, the bulk of the product was dissolved at 40 mM in DMSO and stored in aliquots at −80°C for future use once by further dilution in DMSO and then final dilution in medium for treatment of normal human epithelium and human cancer cell lines at working solutions of 4 mM or 400 µM drug. 1LP65 has maintained stability for six months in frozen aliquots but should be stable in DMSO at −80°C for two to three years based upon recommended storage conditions for cystamine dihydrochloride (Selleck Chemical product information), an analogous 225 Da compound with a disulfide bond and amine groups like 1LP65. […]

NCI-H460 NSCLC cells = details: 48-h treatment, amifostine ND = not definable up to 500 µM
Text: To test anticancer effectiveness of individual drugs or drug combinations, the CyQUANT®-NF proliferation assay was used with a plate reader (i) to generate standard curves for cell numbers for each cell line, (ii) to measure the starting cell numbers at initiation of drug treatment, and (iii) to obtain fluorescence readings from cells in 96-well plates for comparisons to a standard curve for the relevant cancer cell line and quantifying cell viability after drug treatments. […] Trypan blue exclusion was used to estimate cell numbers in a few pilot experiments and thereafter was applied to confirm very low viable cell numbers and cell death.
A series of experiments was conducted to determine the relative efficacy of 4SP65, 1LP65, and amifostine as single agents in the same human cancer cell lines.
Five metrics were calculated and used to characterize the shape of the dose-response curve following exposure to a single test agent. Using cell numbers based on fluorescence measurements and standard curves, the percentage growth was calculated at each drug concentration level. The percentage of growth inhibition was calculated as follows:
where Tz = cell numbers or fluorescence counts at time xero, C = vehicle-exposed control cell numbers at the end of the assessment time period, and Ti = test agent-exposed cell numbers or fluorescence counts at each drug concentration. […] The LC50/99 was calculated using Equation 2 = -50 and Eq. 2 = -99, respectively. […] For NHMECs, the relationships between drug exposure levels and fluorescence units were used to define dose-response metrics. The selectivity index values for individual drugs were calculated using IC50 levels in NHMECs divided by the IC50 value for each cancer cell line. Statistical comparisons of differences in individual dose-response metrics between drug treatments and cell lines were conducted using Student’s t-test, with P-values <0.05 considered significant.
Relative cell growth inhibition values for differing levels of each drug alone and in combination were input into SynergyFinder to generate dose-response curves for each drug alone and to produce a dose-response matrix. The dose-response matrix data then were used in generating a two-dimension heatmap and three-dimension volcano plot to visualize the distribution of areas of differing degrees of synergism and to calculate average and maximum synergy scores in selected human cancer cell lines. The expected drug combination responses were calculated using both the Highest Single Agent (HSA) model and the Zero interaction potency (ZIP) model.

[5] = 48-h treatment, amifostine ND = not definable up to 500 µM
[6] = 48-h treatment, amifostine ND = not definable up to 500 µM, read-out: LC50 (the source's name)

`COCCOCCOCCOCCOCCOCCSSCCNCCCN.O=C(O)C(F)(F)F.O=C(O)C(F)(F)F` [1LP65, m-PEG6-S-S-WR1065] gave a GI50 (NCI-H1437 NSCLC cells) of 66.2 ± 4.2 µM, an IC50 (NCI-H1437 NSCLC cells) of 74.8 ± 2.1 µM and an LC99 (NCI-H1437 NSCLC cells) of 234 ± 16 µM. The TGI (NCI-H1437 NSCLC cells) was 109 ± 17 µM, the CC50 (NCI-H1437 NSCLC cells; read-out: LC50) was 157 ± 14 µM and the GI50 [1, 5] was 36.5 ± 2.3 µM. It also gave an IC50 [1, 5] of 47.3 ± 2.2 µM, an LC99 [1, 5] of 83.9 ± 2.9 µM and a TGI [1, 5] of 46.9 ± 2.5 µM. The CC50 [1, 6] was 59.9 ± 2.9 µM, the “Dose reduction value AMF ÷ 1LP65” value ([1]; at GI50) was 2.1 fold and the “Dose reduction value AMF ÷ 1LP65” value ([1]; at IC50) was 5.8 fold. For the same compound, the “Dose reduction value AMF ÷ 1LP65” value ([1]; at TGI) was 5.4 fold, the GI50 [2, 5] was 41.8 ± 5.9 µM and the IC50 [2, 5] was 52.4 ± 4.8 µM. For the same compound, the LC99 [2, 5] was 135 ± 6.6 µM, the TGI [2, 5] was 76.4 ± 9.2 µM and 76.4 µM and the CC50 [2, 6] was 110 ± 4.7 µM. For the same compound, the “Dose reduction value AMF ÷ 1LP65” value ([2]; at GI50) was 5.8 fold, the IC50 ([3]; Strain-2 NHMECs, 48 h, read-out: IC50) was over 500 µM and the IC50 ([3]; Strain-2 and Strain-3, read-out: average IC50 for the two normal cell strains) was over 355 µM. The “cell growth, % of control cell values” ([3]; Strain-2 cells, 48 h) was 19.5%, the IC50 ([3]; Strain-3 NHMECs, 48 h, read-out: IC50) was 210 µM and the “cell growth, % of control cell values” ([3]; Strain-3 cells, 48 h) was 12.5%. The solubility [4] was “soluble 100% DMSO or aqueous solution”, the “time of maintained stability” value ([4]; frozen aliquots in DMSO at −80°C) was “six” and the GI50 (NCI-H460 NSCLC cells) was 77.7 ± 15 µM. For the same compound, the IC50 (NCI-H460 NSCLC cells) was 90.1 ± 16.6 µM, the LC99 (NCI-H460 NSCLC cells) was 182 ± 6.7 µM and the TGI (NCI-H460 NSCLC cells) was 124 ± 13.3 µM and 124 µM. The CC50 (NCI-H460 NSCLC cells; read-out: LC50) was 155 ± 5.1 µM.
